Test [1] concerns the target Recombinant human His-tagged Kat6a protein (amino acids 194-810) (Homo sapiens (Human), UniProt Q92794). As to the kind of experiment: Kat6a activity assay (TR-FRET, acetylation of biotinylated Histone-H4-derived peptide). As to conditions: 60 mins at 22° C., read-out: KAT6A-DPF/HAT domain IC50 [mol/l] (arithmetic mean). In kind it is biochemical. The method in brief:
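TR-FRET read-out of H4 K8 acetylation, using anti-acetyl-K8 antibody and streptavidin acceptor, after anacardic acid stop; IC50 from four-parameter regression normalized to DMSO. Reaction: recombinant human Kat6a aa 194-810 (insect-cell derived), 220 nM H4 1-24 peptide, 600 nM acetyl-CoA, pH 8, 22 °C, 60 min, compounds 0.01-20 μM.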
Background: Time-resolved FRET reads energy transfer from a long-lived donor to a nearby acceptor.

In test [2] the test system is ZR-75-1 cells. As to the kind of experiment: Proliferation assay ZR-75-1 (Alamar Blue, 144 h). Format: cell-based. Conditions: arithmetic mean, read-out: ZR75-1 proliferation assay, EC50 [M] (arithmetic mean). The method in brief: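 Alamar Blue fluorescence (590 nm, 2 h reagent step) measured viability after 144 h compound exposure at 37 °C, 5% CO2. Compounds spanned 2.0×10E-5 to 2.0×10E-9 M in 9 dilutions at 0.2% DMSO, in triplicate, added 24 h after plating 3000 cells/well in RPMI 1640 plus 2.5% FBS.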
(The colour change of resazurin is a common sign of viable cells or microbes.)

The target in test [3] is Recombinant human GST-tagged Kat6b protein (431-end). As to the kind of experiment: Kat6b activity assay (TR-FRET, acetylation of biotinylated Histone-H4-derived peptide). In kind it is biochemical. Conditions: 30 mins at 22° C., read-out: KAT6B activity assay IC50 [mol/l] (arithmetic mean). Here is the method:
Kat6b inhibitory activities of the compounds described in the present invention were quantified using a Fluorescence Resonance Energy Transfer (TR-FRET) assay which measures acetylation of a synthetic, biotinylated Histone-H4-derived peptide by the enzyme.
In this case 50 nl DMSO were used instead of compounds. […] IC50 values were determined by regression analysis based on a 4 parameter equation (minimum, maximum, ICM, Hill; Y=Max+(Min−Max)/(1+(X/ICso) Hill) using the Screener Software (Genedata).

Test [4] deals with ESR1 transcription (luciferase signal in MVLN cells). As to the kind of experiment: Repression of ESR1 transcription, luciferase reporter in MVLN cells. Format: cell-based. Conditions: inhibition of luciferase signal in MVLN cells, arithmetic mean. In a few lines: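 Luminescence from an ER-driven Vitellogenin A2 element–luciferase reporter was measured after 24 h of treatment of MVLN cells, in duplicate wells. Alamar Blue (2 h, 530/590 nm) served as a cell-density control.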
(In general: In a reporter assay the amount or activity of a reporter protein is the signal.)

In test [5] the test system is MDA-MB-436 cells. As to the kind of experiment: Proliferation assay MDA-MB-436, negative control cell line (Alamar Blue, 144 h). In kind it is cell-based. Conditions: arithmetic mean. The method in brief: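 Viability read as Alamar Blue fluorescence (590 nm, 2 h) after 144 h compound exposure at 37 °C, 5% CO2. Cells seeded at 3000 per well in 2.5% FBS DMEM/Ham's F12, dosed a day later over 2.0×10E-9–2.0×10E-5 M in 9 steps with 0.2% DMSO, in triplicate.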

Setting [6] is: Homo sapiens, MDA-MB-436, 144 h.

Structures are written as SMILES. pIC50: −log10 of the molar value. Like-named read-outs stand apart in the source and are kept apart here.

Consider 19 molecules from US12357603B2, “Acyl sulfonamides for treating cancer” (Bayer Aktiengesellschaft, priority 2019, dated 2025).

The IC50 is the concentration that inhibits the measured activity by half. Read a low IC50 as greater potency in that assay.

Recombinant human His-tagged Kat6a protein (amino acids 194-810), sequence (Q92794 194-810): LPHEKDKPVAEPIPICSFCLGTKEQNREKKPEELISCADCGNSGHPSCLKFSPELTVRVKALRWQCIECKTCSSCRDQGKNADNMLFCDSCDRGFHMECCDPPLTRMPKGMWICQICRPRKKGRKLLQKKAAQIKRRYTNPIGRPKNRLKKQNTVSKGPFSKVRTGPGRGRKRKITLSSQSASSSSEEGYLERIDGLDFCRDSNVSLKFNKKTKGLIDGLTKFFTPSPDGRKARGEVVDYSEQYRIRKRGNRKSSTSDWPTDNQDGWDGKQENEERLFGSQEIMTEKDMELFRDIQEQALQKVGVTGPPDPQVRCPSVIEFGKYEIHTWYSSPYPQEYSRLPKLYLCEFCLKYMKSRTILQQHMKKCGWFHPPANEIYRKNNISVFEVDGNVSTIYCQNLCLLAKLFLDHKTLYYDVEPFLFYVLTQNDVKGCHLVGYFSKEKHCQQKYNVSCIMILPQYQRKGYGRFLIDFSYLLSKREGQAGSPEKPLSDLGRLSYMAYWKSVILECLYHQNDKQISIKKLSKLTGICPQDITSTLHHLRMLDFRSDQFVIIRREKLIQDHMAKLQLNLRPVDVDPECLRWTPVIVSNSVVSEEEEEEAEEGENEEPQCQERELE

Consider `Cc1cc(Cl)c2cccc(S(=O)(=O)NC(=O)c3cc4ccc(N(C)C)cc4o3)c2n1` [Example 83, N-(4-Chloro-2-methylquinoline-8-sulfonyl)-6-(dimethylamino)-1-benzofuran-2-carboxamide], for which the pIC50 in test [1] was 7.31; in test [3], 7.26. Besides, the EC50 in test [2] (Homo sapiens, ZR-75-1, 144 h) was 1.13e-06 M. Besides, the IC50 in test [4] (Homo sapiens, MVLN) stood at 0.209 µM.
Regarding `CN(c1ccccc1)c1ccc2cc(C(=O)NS(=O)(=O)c3ccccc3-c3ccccc3)oc2c1` [Example 10, 6-(N-Methylanilino)-N-(2-phenylphenyl)sulfonyl-benzofuran-2-carboxamide], the pIC50 in test [1] is 6.05; in test [3], 5.83. The molecule also came in with an IC50 in test [4] (Homo sapiens, MVLN) of 13.6 µM.
Consider `CN(C)c1cc(F)c2cc(C(=O)NS(=O)(=O)c3ccccc3-c3ccccc3)oc2c1` [Example 12, N-([1,1′-Biphenyl]-2-sulfonyl)-6-(dimethylamino)-4-fluoro-1-benzofuran-2-carboxamide], for which the pIC50 in test [1] was 7.88; in test [3], 7.74. Further, the EC50 in test [2] (Homo sapiens, ZR-75-1, 144 h) was found to be 5.72e-08 M. The same molecule displayed an IC50 in test [4] (Homo sapiens, MVLN) of 0.0617 µM.
Turning to `CN(C)c1ccc2cc(C(=O)NS(=O)(=O)c3ccc(-c4ccccc4)cc3)oc2c1` [Example 15, N-([1,1′-biphenyl]-4-sulfonyl)-6-(dimethylamino)-1-benzofuran-2-carboxamide], the pIC50 in test [1] was 6.95; in test [3] it was 6.63. In test [2] (Homo sapiens, ZR-75-1, 144 h), the EC50 was 4.28e-06 M. The IC50 in test [4] (Homo sapiens, MVLN) amounted to 5 µM.
For `Cc1ccc2cccc(S(=O)(=O)NC(=O)c3cc4c(F)cc(N(C)C)cc4o3)c2n1` [Example 227], the pIC50 in test [1] is 8.40. Also, the figures for the EC50 in test [2] and in test [5] were 6.85e-08 M and above 14.9 µM, respectively. Moreover, it took 0.014 µM to reach half-maximal inhibition in test [4] (IC50).
As to `CCCOc1cccc(C)c1S(=O)(=O)NC(=O)c1cc2ccc(N(C)C)cc2o1` [Example 133, 6-(Dimethylamino)-N-(2-methyl-6-propoxybenzene-1-sulfonyl)-1-benzofuran-2-carboxamide], the pIC50 in test [1] was 6.49. Also, the EC50 in test [2] (Homo sapiens, ZR-75-1, 144 h) was 4.88e-07 M; in test [5] (setting [6]), above 20 µM. It took 0.323 µM to reach half-maximal inhibition in test [4] (Homo sapiens, MVLN) (IC50).
With `CCOc1ccccc1S(=O)(=O)NC(=O)c1cc2ccc(N(C)CCOC)cc2o1` [Example 215, N-(2-Ethoxybenzene-1-sulfonyl)-6-[(2-methoxyethyl)(methyl)amino]-1-benzofuran-2-carboxamide], in test [1], the pIC50 is 5.58. Besides, the EC50 was 1.01e-05 M in test [2] (Homo sapiens, ZR-75-1, 144 h) and above 20 µM in test [5] (setting [6]). In test [4] (Homo sapiens, MVLN), this molecule returned an IC50 of 11.8 µM.
Turning to `CCOc1ccc(F)cc1S(=O)(=O)NC(=O)c1cc2ccc(N(C)C)cc2o1` [Example 173, 6-(Dimethylamino)-N-(2-ethoxy-5-fluoro-phenyl)sulfonyl-benzofuran-2-carboxamide], the pIC50 in test [1] is 7.01. The EC50 in test [2] (Homo sapiens, ZR-75-1, 144 h) is 1.1e-07 M; in test [5] (setting [6]), above 20 µM. The molecule also showed an IC50 in test [4] (Homo sapiens, MVLN) of 0.0674 µM.
With `CC(C)c1ccc(OCc2ccccc2)c(S(=O)(=O)NC(=O)c2cc3ccc(N(C)C)cc3o2)c1` [Example 176, N-(2-Benzyloxy-5-isopropyl-phenyl)sulfonyl-6-(dimethylamino)benzofuran-2-carboxamide], the pIC50 in test [1] was 7.89. For the same molecule, the EC50 in test [2] (Homo sapiens, ZR-75-1, 144 h) turned out to be 9.71e-08 M; in test [5] (setting [6]) it was 19.5 µM. Also, the IC50 in test [4] (Homo sapiens, MVLN) came out at 0.0348 µM.
`CCc1ccccc1S(=O)(=O)NC(=O)c1cc2ccc(N(C)C)cc2o1` [Example 104, 6-(Dimethylamino)-N-(2-ethylbenzene-1-sulfonyl)-1-benzofuran-2-carboxamide]: the pIC50 in test [1] was 5.96. The EC50 is 3e-06 M in test [2] (Homo sapiens, ZR-75-1, 144 h) and above 20 µM in test [5] (setting [6]). Also, half-maximal inhibition in test [4] (Homo sapiens, MVLN) (IC50) required 3.19 µM.
As to `CCNc1ccc2cc(C(=O)NS(=O)(=O)c3ccccc3OCC)oc2c1` [Example 212, N-(2-Ethoxybenzene-1-sulfonyl)-6-(ethylamino)-1-benzofuran-2-carboxamide], the pIC50 in test [1] is 5.95. Further, the EC50 in test [2] (Homo sapiens, ZR-75-1, 144 h) is 4.19e-06 M; in test [5] (setting [6]), above 20 µM. This molecule also returned an IC50 in test [4] (Homo sapiens, MVLN) of 9.28 µM.
The like results for `CN(C)c1cc2oc(C(=O)NS(=O)(=O)c3ccccc3OC3CC3)cc2cc1Br` [Example 207, 5-Bromo-N-[2-(cyclopropyloxy)benzene-1-sulfonyl]-6-(dimethylamino)-1-benzofuran-2-carboxamide] were, in that order, 5.17, above 2e-05 M, above 20 µM and 11.8 µM.
Regarding `CCOc1ccc(C(F)(F)F)cc1S(=O)(=O)NC(=O)c1cc2ccc(N(C)C)cc2o1` [Example 172, 6-(Dimethylamino)-N-[2-ethoxy-5-(trifluoromethyl)phenyl]sulfonyl-benzofuran-2-carboxamide], the pIC50 in test [1] is 7.27. Further, the EC50 is 8.08e-08 M in test [2] (Homo sapiens, ZR-75-1, 144 h) and above 20 µM in test [5] (setting [6]). Further, inhibition in test [4] (Homo sapiens, MVLN) was half-maximal at 0.0723 µM (IC50).
The like results for `CCOc1ccccc1S(=O)(=O)NC(=O)c1cc2cc(Br)c(N(C)C)cc2o1` [Example 218, 5-Bromo-6-(dimethylamino)-N-(2-ethoxybenzene-1-sulfonyl)-1-benzofuran-2-carboxamide] were, in that order, 5.33, 8.31e-06 M, above 20 µM and 7.9 µM.
In the case of `COc1cccc(S(C)(=O)=O)c1S(=O)(=O)NC(=O)c1cc2ccc(N(C)C)cc2o1` [Example 140, 6-(Dimethylamino)-N-[2-(methanesulfonyl)-6-methoxybenzene-1-sulfonyl]-1-benzofuran-2-carboxamide], in test [1], the pIC50 was 5.25. Further, the EC50 in test [2] (Homo sapiens, ZR-75-1, 144 h) is 7.83e-06 M; in test [5] (setting [6]) it was above 20 µM. Besides, 9.65 µM corresponded to half-maximal inhibition in test [4] (Homo sapiens, MVLN) (IC50).
The like results for `CN(C)c1ccc2cc(C(=O)NS(=O)(=O)c3ccccc3OCCN)oc2c1` [Example 167, N-[2-(2-Aminoethoxy)benzene-1-sulfonyl]-6-(dimethylamino)-1-benzofuran-2-carboxamide hydrogen chloride (1/1)] were, in that order, 5.69, 9.52e-06 M, above 20 µM and 9.1 µM.
As to `CCOc1ccccc1S(=O)(=O)NC(=O)c1cc2cc(F)c(N(C)C)cc2o1` [Example 198, 6-(Dimethylamino)-N-((2-ethoxyphenyl)sulfonyl)-5-fluorobenzofuran-2-carboxamide], in test [1], the pIC50 was 5.39. The EC50 was 7.2e-06 M in test [2] (Homo sapiens, ZR-75-1, 144 h) and above 20 µM in test [5] (setting [6]). In addition, the midpoint of inhibition in test [4] (Homo sapiens, MVLN), the IC50, lay at 2.32 µM.
Take `CN(C)c1ccc2cc(C(=O)NS(=O)(=O)c3ccccc3OCCOCCOCCOCCNc3ccc([N+](=O)[O-])c4nonc34)oc2c1` [Example 168, 6-(Dimethylamino)-N-(2-{2-[2-(2-{2-[(7-nitro-2,1,3-benzoxadiazol-4-yl)amino]ethoxy}ethoxy)ethoxy]ethoxy}benzene-1-sulfonyl)-1-benzofuran-2-carboxamide]: the pIC50 in test [1] is 6.89. For the same molecule, the EC50 in test [2] (Homo sapiens, ZR-75-1, 144 h) is 1.24e-05 M; in test [5] (setting [6]), above 20 µM. In test [4] (Homo sapiens, MVLN), this molecule registered a half-inhibitory concentration (IC50) of 8.6 µM.
Regarding `CN(C)c1ccc2cc(C(=O)NS(=O)(=O)c3cccc4c3OCC4)oc2c1` [Example 30, N-(2,3-Dihydro-1-benzofuran-7-sulfonyl)-6-(dimethylamino)-1-benzofuran-2-carboxamide], the pIC50 in test [1] was 6.86; in test [3] it was 6.30. In test [4] (Homo sapiens, MVLN), the IC50 is above 20 µM.
